Measurements published in patent US10227357B2, “Compounds and methods for kinase modulation, and indications therefor” (Plexxikon Inc., priority 2012, dated 2019).

Key:
c-kit mutant D816V = target: T1, c-kit mutant D816V (Homo sapiens, UniProt P10721, D816V/DEL694-753); assay: c-Kit mutant D816V biochemical assay, AlphaScreen; settings: c-kit D816V biochemical inhibitory activity; read-out: Biochemical activity (IC50 μM) Kit D816V
T1 construct: residues 551-934, kinase insertion domain residues 694-753 deleted; 6x-histidine (N); made in house; host or cells: E. coli Arctic Express (DE3) RIL (Stratagene)
Outline: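 Purified His-tagged c-Kit D816V (E. coli-expressed) assayed in 25 mM HEPES pH 7.2 with Mg/Mn, 5% DMSO and 10 μM ATP, 30 min at room temperature, 8-point 1:3 dilutions. Phosphorylation detected by AlphaScreen with streptavidin donor and PY20 acceptor beads; IC50 from signal versus concentration.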

c-kit kinase = target: T2, c-kit kinase (Homo sapiens, UniProt P10721); assay: c-Kit biochemical assay, AlphaScreen, 10 μM ATP; settings: c-kit biochemical inhibitory activity; read-out: Biochemical activity (IC50 μM) Kit
T2 construct: The c-kit (or kinase domain thereof) is an active kinase in AlphaScreen; poly-Histidine tag (in-house protein only) (cleaved yes); host or cells: E. coli BL21(DE3)RIL, co-expressed with PTP1B
Outline: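 His-tagged c-Kit expressed in E. coli with co-expressed PTP1B (dephosphorylated), tag removed; 0.1 ng per reaction with biotinylated-peptide substrate in 50 mM HEPES pH 7.2, 5 mM MgCl2, 5 mM MnCl2, 5% DMSO, 10 μM ATP, 1 h at room temperature. Phosphorylation detected by AlphaScreen (streptavidin donor, PY20 acceptor beads); IC50 from 8-point 1:3 dilution series.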

T1 sequence (P10721 with tags, fused parts or gaps DEL694-753/D816V): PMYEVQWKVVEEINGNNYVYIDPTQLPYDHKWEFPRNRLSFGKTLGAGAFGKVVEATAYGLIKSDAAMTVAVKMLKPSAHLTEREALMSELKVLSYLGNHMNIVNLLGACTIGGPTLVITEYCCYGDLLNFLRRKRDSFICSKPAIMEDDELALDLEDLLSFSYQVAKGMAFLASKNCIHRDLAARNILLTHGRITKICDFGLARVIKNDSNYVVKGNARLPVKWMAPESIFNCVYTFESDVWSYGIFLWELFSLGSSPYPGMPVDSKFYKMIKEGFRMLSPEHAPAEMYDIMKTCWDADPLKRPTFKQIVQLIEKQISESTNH
T2 sequence (P10721 26-976): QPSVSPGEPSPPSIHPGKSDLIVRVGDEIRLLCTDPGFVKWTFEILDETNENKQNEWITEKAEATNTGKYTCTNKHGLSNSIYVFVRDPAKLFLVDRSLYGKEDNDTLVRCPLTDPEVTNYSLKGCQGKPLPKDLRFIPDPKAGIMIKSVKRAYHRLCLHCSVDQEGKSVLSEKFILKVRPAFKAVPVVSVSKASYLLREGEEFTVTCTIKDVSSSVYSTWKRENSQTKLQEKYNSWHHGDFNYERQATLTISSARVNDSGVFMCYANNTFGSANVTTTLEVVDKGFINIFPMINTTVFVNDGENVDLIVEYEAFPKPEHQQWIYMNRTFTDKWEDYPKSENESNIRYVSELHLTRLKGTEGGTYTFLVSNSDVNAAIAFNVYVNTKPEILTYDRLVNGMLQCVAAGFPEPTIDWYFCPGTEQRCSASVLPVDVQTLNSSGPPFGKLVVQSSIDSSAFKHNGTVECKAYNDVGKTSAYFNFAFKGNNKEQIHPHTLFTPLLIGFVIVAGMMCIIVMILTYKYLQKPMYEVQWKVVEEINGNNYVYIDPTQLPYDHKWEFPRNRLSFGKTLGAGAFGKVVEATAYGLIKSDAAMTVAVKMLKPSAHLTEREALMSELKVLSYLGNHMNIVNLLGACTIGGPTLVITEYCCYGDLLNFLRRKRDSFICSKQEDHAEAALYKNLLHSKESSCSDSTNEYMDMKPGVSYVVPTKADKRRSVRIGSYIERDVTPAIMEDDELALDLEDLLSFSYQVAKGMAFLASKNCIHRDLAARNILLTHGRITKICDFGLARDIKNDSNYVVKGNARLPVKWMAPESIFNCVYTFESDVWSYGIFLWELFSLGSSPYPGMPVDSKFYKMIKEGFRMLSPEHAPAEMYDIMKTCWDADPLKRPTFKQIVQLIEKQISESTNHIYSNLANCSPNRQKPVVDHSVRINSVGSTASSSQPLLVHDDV

In the case of `O=C(NCc1cccc(F)c1)NC1CCN(c2ncnc3[nH]ccc23)CC1` [P-0510, 1-[(3-fluorophenyl)methyl]-3-[1-(7H-pyrrolo[2,3-d]pyrimidin-4-yl)-4-piperidyl]urea], the IC50 (c-kit mutant D816V) is reported as 10 to 200 µM and the IC50 (c-kit kinase) is reported as 10 to 200 µM.

In the case of `O=C(Nc1cccc(C(F)(F)F)c1)NC1CCN(c2ncnc3[nH]ccc23)CC1` [P-0515, 1-[1-(7H-pyrrolo[2,3-d]pyrimidin-4-yl)-4-piperidyl]-3-[3-(trifluoromethyl)phenyl]urea], the IC50 (c-kit mutant D816V) is reported as 10 to 200 µM and the IC50 (c-kit kinase) is reported as 1 to 10 µM.

Work on `CCc1ccc(S(=O)(=O)NC2CCN(c3ncnc4[nH]ccc34)CC2)cc1` [P-0525, 4-ethyl-N-[1-(7H-pyrrolo[2,3-d]pyrimidin-4-yl)-4-piperidyl]benzenesulfonamide] yielded an IC50 (c-kit mutant D816V) of 10 to 200 µM and an IC50 (c-kit kinase) of 10 to 200 µM.

With `O=S(=O)(NC1CCN(c2ncnc3[nH]ccc23)CC1)c1cc(F)ccc1F` [P-0539, 2,5-difluoro-N-[1-(7H-pyrrolo[2,3-d]pyrimidin-4-yl)-4-piperidyl]benzenesulfonamide] the IC50 (c-kit mutant D816V) was 10 to 200 µM and the IC50 (c-kit kinase) was 10 to 200 µM.

`COc1ccc(S(=O)(=O)NC2CCN(c3ncnc4[nH]ccc34)CC2)cc1` [P-0540, 4-methoxy-N-[1-(7H-pyrrolo[2,3-d]pyrimidin-4-yl)-4-piperidyl]benzenesulfonamide] was tested, and the IC50 (c-kit mutant D816V) was 10 to 200 µM and the IC50 (c-kit kinase) was 10 to 200 µM.

For `NC1CCN(c2ncnc3[nH]ccc23)CC1` [P-0541, 1-(7H-pyrrolo[2,3-d]pyrimidin-4-yl)piperidin-4-amine], the IC50 (c-kit mutant D816V) was 1 to 10 µM and the IC50 (c-kit kinase) was 10 to 200 µM.

`COc1ccc(NC(=O)NC2CCN(c3ncnc4[nH]ccc34)CC2)cc1` [P-0543, 1-(4-methoxyphenyl)-3-[1-(7H-pyrrolo[2,3-d]pyrimidin-4-yl)-4-piperidyl]urea] was tested, and the IC50 (c-kit mutant D816V) was 10 to 200 µM and the IC50 (c-kit kinase) was 10 to 200 µM.

`C[C@H](NC(=O)N1CCN(c2ncnc3cc(C4=CCN(C(=O)C5CC5)CC4)sc23)CC1(C)C)c1cccc(Cl)c1` [P-0552, N-[(1S)-1-(3-chlorophenyl)ethyl]-4-[6-[1-(cyclopropanecarbonyl)-3,6-dihydro-2H-pyridin-4-yl]thieno[3,2-d]pyrimidin-4-yl]-2,2-dimethyl-piperazine-1-carboxamide] gave an IC50 (c-kit mutant D816V) of 0.0001 to 1 µM and an IC50 (c-kit kinase) of 0.0001 to 1 µM.

`C[C@H](NC(=O)N1CCN(c2ncnc3cc(C4=CCN(S(C)(=O)=O)CC4)sc23)CC1(C)C)c1cccc(Cl)c1` [P-0553, N-[(1S)-1-(3-chlorophenyl)ethyl]-2,2-dimethyl-4-[6-(1-methylsulfonyl-3,6-dihydro-2H-pyridin-4-yl)thieno[3,2-d]pyrimidin-4-yl]piperazine-1-carboxamide] was tested, and the IC50 (c-kit mutant D816V) was 0.0001 to 1 µM and the IC50 (c-kit kinase) was 1 to 10 µM.

`O=C(N1CC=C(c2cc3ncnc(-c4ccc(NS(=O)(=O)C5CC5)cc4)c3s2)CC1)N1CCOCC1` [P-0554, N-[4-[6-[1-(morpholine-4-carbonyl)-3,6-dihydro-2H-pyridin-4-yl]thieno[3,2-d]pyrimidin-4-yl]phenyl]cyclopropanesulfonamide] showed an IC50 (c-kit mutant D816V) of 0.0001 to 1 µM and an IC50 (c-kit kinase) of 0.0001 to 1 µM.

In the case of `CS(=O)(=O)Nc1ccc(-c2ncnc3cc(C4=CCN(C(=O)N5CCOCC5)CC4)sc23)cc1` [P-0555, N-[4-[6-[1-(morpholine-4-carbonyl)-3,6-dihydro-2H-pyridin-4-yl]thieno[3,2-d]pyrimidin-4-yl]phenyl]methanesulfonamide], the IC50 (c-kit mutant D816V) is reported as 0.0001 to 1 µM and the IC50 (c-kit kinase) is reported as 0.0001 to 1 µM.

`COc1cc(-c2cc3ncnc(N4CCN(C(=O)N[C@@H](C)c5cccc(Cl)c5)C(C)(C)C4)c3s2)ccn1` [P-0556, N-[(1S)-1-(3-chlorophenyl)ethyl]-4-[6-(2-methoxy-4-pyridyl)thieno[3,2-d]pyrimidin-4-yl]-2,2-dimethyl-piperazine-1-carboxamide] was tested, and the IC50 (c-kit mutant D816V) was 0.0001 to 1 µM and the IC50 (c-kit kinase) was 1 to 10 µM.

For `Cc1nc(C)c(-c2cc3ncnc(N4CCN(C(=O)N[C@@H](C)c5cccc(Cl)c5)C(C)(C)C4)c3s2)s1` [P-0557, N-[(1S)-1-(3-chlorophenyl)ethyl]-4-[6-(2,4-dimethylthiazol-5-yl)thieno[3,2-d]pyrimidin-4-yl]-2,2-dimethyl-piperazine-1-carboxamide], the IC50 (c-kit mutant D816V) was 0.0001 to 1 µM and the IC50 (c-kit kinase) was 10 to 200 µM.

`C[C@H](NC(=O)N1CCN(c2ncnc3cc(N4CCOCC4)sc23)CC1(C)C)c1cccc(Cl)c1` [P-0558, N-[(1S)-1-(3-chlorophenyl)ethyl]-2,2-dimethyl-4-(6-morpholinothieno[3,2-d]pyrimidin-4-yl)piperazine-1-carboxamide] gave an IC50 (c-kit mutant D816V) of 0.0001 to 1 µM and an IC50 (c-kit kinase) of 1 to 10 µM.

Work on `CC(=N)Nc1ccc(-c2ncnc3cc(C4=CCN(C(=O)N5CCOCC5)CC4)sc23)cc1` [P-0559, N-[4-[6-[1-(morpholine-4-carbonyl)-3,6-dihydro-2H-pyridin-4-yl]thieno[3,2-d]pyrimidin-4-yl]phenyl]acetamidine] yielded an IC50 (c-kit mutant D816V) of 0.0001 to 1 µM and an IC50 (c-kit kinase) of 10 to 200 µM.

For `COc1cccc([C@H](C)NC(=O)N2CCN(c3ncnc4cc(N5CCOCC5)sc34)CC2(C)C)c1` [P-0560, N-[(1S)-1-(3-methoxyphenyl)ethyl]-2,2-dimethyl-4-(6-morpholinothieno[3,2-d]pyrimidin-4-yl)piperazine-1-carboxamide], the IC50 (c-kit mutant D816V) was 0.0001 to 1 µM and the IC50 (c-kit kinase) was 1 to 10 µM.

With `O=C(N1CC=C(c2cc3ncnc(-c4ccc(NS(=O)(=O)c5ccc(F)cc5)cc4)c3s2)CC1)N1CCOCC1` [P-0561, 4-fluoro-N-[4-[6-[1-(morpholine-4-carbonyl)-3,6-dihydro-2H-pyridin-4-yl]thieno[3,2-d]pyrimidin-4-yl]phenyl]benzenesulfonamide] the IC50 (c-kit mutant D816V) was 0.0001 to 1 µM and the IC50 (c-kit kinase) was 0.0001 to 1 µM.

In the case of `Cc1nn(C)cc1-c1cc2ncnc(N3CCN(C(=O)N[C@@H](C)c4cccc(Cl)c4)C(C)(C)C3)c2s1` [P-0564, N-[(1S)-1-(3-chlorophenyl)ethyl]-4-[6-(1,3-dimethylpyrazol-4-yl)thieno[3,2-d]pyrimidin-4-yl]-2,2-dimethyl-piperazine-1-carboxamide], the IC50 (c-kit mutant D816V) is reported as 0.0001 to 1 µM and the IC50 (c-kit kinase) is reported as 1 to 10 µM.

For `COc1cccc([C@H](C)NC(=O)N2CC3CCC2CN3c2ncnc3cc(-c4ccc(F)cc4)sc23)c1` (stereo partly drawn) [P-0566, 5-[6-(4-fluorophenyl)thieno[3,2-d]pyrimidin-4-yl]-N-[(1S)-1-(3-methoxyphenyl)ethyl]-2,5-diazabicyclo[2.2.2]octane-2-carboxamide], the IC50 (c-kit mutant D816V) was 1 to 10 µM and the IC50 (c-kit kinase) was 10 to 200 µM.

For `COc1cccc([C@H](C)NC(=O)N2C3CCC2CN(c2ncnc4cc(-c5ccc(F)cc5)sc24)C3)c1` [P-0567, 3-[6-(4-fluorophenyl)thieno[3,2-d]pyrimidin-4-yl]-N-[(1S)-1-(3-methoxyphenyl)ethyl]-3,8-diazabicyclo[3.2.1]octane-8-carboxamide], the IC50 (c-kit mutant D816V) was 0.0001 to 1 µM and the IC50 (c-kit kinase) was 10 to 200 µM.

For `CS(=O)(=O)N1CC=C(c2cc3ncnc(N4CCN(C(=O)NCc5ccc(F)cc5)CC4)c3s2)CC1` [P-0568, N-[(4-fluorophenyl)methyl]-4-[6-(1-methylsulfonyl-3,6-dihydro-2H-pyridin-4-yl)thieno[3,2-d]pyrimidin-4-yl]piperazine-1-carboxamide], the IC50 (c-kit mutant D816V) was 0.0001 to 1 µM and the IC50 (c-kit kinase) was 1 to 10 µM.

In the case of `C[C@H](NC(=O)N1CCN(c2ncnc3cc(C4=CC(C)(C)NC(C)(C)C4)sc23)CC1)c1cccc(Cl)c1` [P-0569, N-[(1S)-1-(3-chlorophenyl)ethyl]-4-[6-(2,2,6,6-tetramethyl-1,3-dihydropyridin-4-yl)thieno[3,2-d]pyrimidin-4-yl]piperazine-1-carboxamide], the IC50 (c-kit mutant D816V) is reported as 0.0001 to 1 µM and the IC50 (c-kit kinase) is reported as 10 to 200 µM.

Work on `O=C(C1CC1)N1CC=C(c2cc3ncnc(-c4ccc(NS(=O)(=O)c5ccc(F)cc5)cc4)c3s2)CC1` [P-0570, N-[4-[6-[1-(cyclopropanecarbonyl)-3,6-dihydro-2H-pyridin-4-yl]thieno[3,2-d]pyrimidin-4-yl]phenyl]-4-fluoro-benzenesulfonamide] yielded an IC50 (c-kit mutant D816V) of 0.0001 to 1 µM and an IC50 (c-kit kinase) of 0.0001 to 1 µM.

With `O=C(C1CC1)N1CC=C(c2cc3ncnc(-c4ccc(NS(=O)(=O)C5CC5)cc4)c3s2)CC1` [P-0571, N-[4-[6-[1-(cyclopropanecarbonyl)-3,6-dihydro-2H-pyridin-4-yl]thieno[3,2-d]pyrimidin-4-yl]phenyl]cyclopropanesulfonamide] the IC50 (c-kit mutant D816V) was 0.0001 to 1 µM and the IC50 (c-kit kinase) was 0.0001 to 1 µM.

In the case of `CS(=O)(=O)Nc1ccc(-c2ncnc3cc(C4=CCN(C(=O)C5CC5)CC4)sc23)cc1` [P-0572, N-[4-[6-[1-(cyclopropanecarbonyl)-3,6-dihydro-2H-pyridin-4-yl]thieno[3,2-d]pyrimidin-4-yl]phenyl]methanesulfonamide], the IC50 (c-kit mutant D816V) is reported as 0.0001 to 1 µM and the IC50 (c-kit kinase) is reported as 0.0001 to 1 µM.

`C[C@H](NC(=O)N1CC=C(c2ncnc3cc(-c4ccc(F)cc4)sc23)CC1)c1cccc(OC(F)F)c1` [P-0573, N-[(1S)-1-[3-(difluoromethoxy)phenyl]ethyl]-4-[6-(4-fluorophenyl)thieno[3,2-d]pyrimidin-4-yl]-3,6-dihydro-2H-pyridine-1-carboxamide] showed an IC50 (c-kit mutant D816V) of 1 to 10 µM and an IC50 (c-kit kinase) of 10 to 200 µM.

`COc1cccc([C@H](C)NC(=O)N2CCN(c3ncnc4cc(C5=CC(C)(C)NC(C)(C)C5)sc34)CC2)c1` [P-0574, N-[(1S)-1-(3-methoxyphenyl)ethyl]-4-[6-(2,2,6,6-tetramethyl-1,3-dihydropyridin-4-yl)thieno[3,2-d]pyrimidin-4-yl]piperazine-1-carboxamide] gave an IC50 (c-kit mutant D816V) of 0.0001 to 1 µM and an IC50 (c-kit kinase) of 1 to 10 µM.

`C[C@H](NC(=O)N1CCN(c2ncnc3cc(-c4ccc(F)cc4)sc23)CC1(C)C)c1ccc(Cl)cc1` [P-0575, N-[(1S)-1-(4-chlorophenyl)ethyl]-4-[6-(4-fluorophenyl)thieno[3,2-d]pyrimidin-4-yl]-2,2-dimethyl-piperazine-1-carboxamide] gave an IC50 (c-kit mutant D816V) of 0.0001 to 1 µM and an IC50 (c-kit kinase) of 10 to 200 µM.
